The data set in a line: Visual solubility of formulations packaged in glass bottles. In kind it is physicochemical. Conditions: 100 μg/50 μl in 12% w/w ethanol and HFA 134a, T=5° C. and T=20° C.

As for `CCCC1O[C@@H]2C[C@H]3[C@@H]4CCC5=CC(=O)C=C[C@]5(C)[C@H]4[C@@H](O)C[C@]3(C)[C@]2(C(=O)CO)O1` (stereo partly shown) [Budesonide], the “Visual solubility in glass bottles” value is “confirmed visually”.

The record behind these values is patent US20260102340A1, “Therapeutic Formulation” (1000739373 Ontario Ltd., priority 2022, published 2026).
